# Experimental data reported in PubChem BioAssay (NCI).
#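 These data come from cells grown in 96-well plates and exposed to compound for 48 hours at five concentrations. GI50: concentration for 50% inhibition of growth. At the TGI there is no net growth.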
# Key:
# Test in all cases: inhibition of tumour cell growth, NCI panel, 48 h
# [1] = system: SK-MEL-28 melanoma
# [2] = system: SF-268 CNS
# [3] = system: NCI/ADR-RES ovarian
# [4] = system: MDA-MB-231 breast
# [5] = system: SK-OV-3 ovarian
# [6] = system: NCI-H460 lung
# [7] = system: U251 CNS
# [8] = system: NCI-H226 lung
# [9] = system: NCI-H522 lung
# [10] = system: SN12C renal
# [11] = system: MCF7 breast
# [12] = system: MALME-3M melanoma
# [13] = system: HOP-92 NSCLC
# [14] = system: LOX IMVI melanoma
# [15] = system: OVCAR-4 ovarian
# [16] = system: HS 578T breast
# [17] = system: ACHN renal
# [18] = system: OVCAR-8 ovarian
# [19] = system: K-562 leukemia
# [20] = system: MOLT-4 leukemia
# [21] = system: SR leukemia
# [22] = system: EKVX NSCLC
# [23] = system: BT-549 breast
# [24] = system: SF-539 CNS
# [25] = system: NCI-H23 lung
# [26] = system: HL-60(TB) leukemia
# [27] = system: M14 melanoma
# [28] = system: SNB-75 CNS
# [29] = system: SF-295 CNS
# [30] = system: 786-0 renal
# [31] = system: UACC-62 melanoma
# [32] = system: HT29 colon
# [33] = system: HCC-2998 colon
# [34] = system: OVCAR-5 ovarian
# [35] = system: A498 renal
# [36] = system: SK-MEL-5 melanoma
# [37] = system: RPMI-8226 leukemia
# [38] = system: HCT-116 colon
# [39] = system: UO-31 renal
# [40] = system: OVCAR-3 ovarian
# [41] = system: PC-3 prostate
# [42] = system: UACC-257 melanoma
# [43] = system: CCRF-CEM leukemia
# [44] = system: HOP-62 NSCLC
# [45] = system: A549 NSCLC
# [46] = system: SK-MEL-2 melanoma
# [47] = system: DU-145 prostate
# [48] = system: CAKI-1 renal
# [49] = system: T-47D breast
# [50] = system: COLO 205 colon
# [51] = system: KM12 colon
# [52] = system: RXF 393 renal
# [53] = system: MDA-MB-435
# [54] = system: SW-620 colon
# [55] = system: SNB-19 CNS
# [56] = system: IGROV1 ovarian
# [57] = system: TK-10 renal
# [58] = system: HCT-15 colon
compound,measurement,setting,value
CC(=O)Oc1ccccc1C(=O)/C=C/c1cccc([N+](=O)[O-])c1,GI50,[1],5.56 µM
same,TGI,[1],21.2 µM
same,GI50,[2],3.58 µM
same,TGI,[2],12.4 µM
same,GI50,[3],3.88 µM
same,TGI,[3],18.7 µM
same,GI50,[4],3.48 µM
same,TGI,[4],13.5 µM
same,GI50,[5],12.9 µM
same,TGI,[5],29.2 µM
same,GI50,[6],2.4 µM
same,TGI,[6],9.4 µM
same,GI50,[7],2.02 µM
same,TGI,[7],4.78 µM
same,GI50,[8],10.9 µM
same,TGI,[8],30.6 µM
same,GI50,[9],15.3 µM
same,TGI,[9],36.3 µM
same,GI50,[10],2.53 µM
same,TGI,[10],6.79 µM
same,GI50,[11],1.99 µM
same,TGI,[11],10.6 µM
same,GI50,[12],13.6 µM
same,TGI,[12],30.5 µM
same,GI50,[13],7.91 µM
same,TGI,[13],22.5 µM
same,GI50,[14],1.56 µM
same,TGI,[14],3.33 µM
same,GI50,[15],5.95 µM
same,TGI,[15],23.1 µM
same,GI50,[16],1.78 µM
same,TGI,[16],8.16 µM
same,GI50,[17],2.29 µM
same,TGI,[17],4.99 µM
same,GI50,[18],3.11 µM
same,TGI,[18],10.4 µM
same,GI50,[19],3.14 µM
same,TGI,[19],> 100 µM
same,GI50,[20],3.15 µM
same,TGI,[20],> 100 µM
same,GI50,[21],2.25 µM
same,TGI,[21],7.7 µM
same,GI50,[22],11.3 µM
same,TGI,[22],26.6 µM
same,GI50,[23],2.28 µM
same,TGI,[23],5.41 µM
same,GI50,[24],2.08 µM
same,TGI,[24],4.93 µM
same,GI50,[25],5.09 µM
same,TGI,[25],19.6 µM
same,GI50,[26],3.26 µM
same,TGI,[26],9.51 µM
same,GI50,[27],3.93 µM
same,TGI,[27],14 µM
same,GI50,[28],2.94 µM
same,TGI,[28],14.4 µM
same,GI50,[29],1.88 µM
same,TGI,[29],4.16 µM
same,GI50,[30],1.83 µM
same,TGI,[30],3.6 µM
same,GI50,[31],3.29 µM
same,TGI,[31],12.2 µM
same,GI50,[32],2.36 µM
same,TGI,[32],4.92 µM
same,GI50,[33],2.3 µM
same,TGI,[33],4.97 µM
same,GI50,[34],4.75 µM
same,TGI,[34],17.1 µM
same,GI50,[35],2.54 µM
same,TGI,[35],17.6 µM
same,GI50,[36],3.03 µM
same,TGI,[36],9.07 µM
same,GI50,[37],3.18 µM
same,TGI,[37],16.1 µM
same,GI50,[38],1.66 µM
same,TGI,[38],3.07 µM
same,GI50,[39],1.52 µM
same,TGI,[39],2.96 µM
same,GI50,[40],2.6 µM
same,TGI,[40],6.17 µM
same,GI50,[41],3.69 µM
same,TGI,[41],15.3 µM
same,GI50,[42],6.99 µM
same,TGI,[42],20.8 µM
same,GI50,[43],3.06 µM
same,TGI,[43],> 100 µM
same,GI50,[44],2.5 µM
same,TGI,[44],7.8 µM
same,GI50,[45],5.48 µM
same,TGI,[45],23.3 µM
same,GI50,[46],15.1 µM
same,TGI,[46],29.4 µM
same,GI50,[47],4.37 µM
same,TGI,[47],15.8 µM
same,GI50,[48],2.95 µM
same,TGI,[48],14.9 µM
same,GI50,[49],10.8 µM
same,TGI,[49],44 µM
same,GI50,[50],3.29 µM
same,TGI,[50],11.5 µM
same,GI50,[51],2.4 µM
same,TGI,[51],6.23 µM
same,GI50,[52],1.88 µM
same,TGI,[52],3.48 µM
same,GI50,[53],1.65 µM
same,TGI,[53],3.55 µM
same,GI50,[54],1.87 µM
same,TGI,[54],3.9 µM
same,GI50,[55],4.43 µM
same,TGI,[55],15.3 µM
COc1ccc(OC)c(Cn2cc3c(c2)-c2oncc2CC3)c1,GI50,[1],5.09 µM
same,TGI,[1],> 100 µM
same,GI50,[2],6.22 µM
same,TGI,[2],> 100 µM
same,GI50,[3],2.01 µM
same,TGI,[3],6.68 µM
same,GI50,[4],5.02 µM
same,TGI,[4],> 72 µM
same,GI50,[5],3.13 µM
same,TGI,[5],> 57.5 µM
same,GI50,[6],3.26 µM
same,TGI,[6],17.7 µM
same,GI50,[7],3.54 µM
same,TGI,[7],> 100 µM
same,GI50,[8],7.67 µM
same,TGI,[8],> 100 µM
same,GI50,[9],1.63 µM
same,TGI,[9],4.89 µM
same,GI50,[10],5.97 µM
same,TGI,[10],> 100 µM
same,GI50,[11],3.02 µM
same,TGI,[11],> 81.9 µM
same,GI50,[12],3.03 µM
same,TGI,[12],40.7 µM
same,GI50,[13],3.25 µM
same,TGI,[13],57.8 µM
same,GI50,[14],4.06 µM
same,TGI,[14],> 100 µM
same,GI50,[15],5.74 µM
same,TGI,[15],> 100 µM
same,GI50,[16],2.25 µM
same,TGI,[16],8.32 µM
same,GI50,[17],6.07 µM
same,TGI,[17],> 100 µM
same,GI50,[18],5.27 µM
same,TGI,[18],> 100 µM
same,GI50,[19],0.762 µM
same,TGI,[19],> 57.8 µM
same,GI50,[20],3.08 µM
same,TGI,[20],> 41.2 µM
same,GI50,[21],1.16 µM
same,TGI,[21],18.2 µM
same,GI50,[22],4.22 µM
same,TGI,[22],> 100 µM
same,GI50,[23],4.05 µM
same,TGI,[23],> 100 µM
same,GI50,[24],2.28 µM
same,TGI,[24],7.63 µM
same,GI50,[25],3.8 µM
same,TGI,[25],> 90.2 µM
same,GI50,[26],1.65 µM
same,TGI,[26],6.74 µM
same,GI50,[27],2.15 µM
same,TGI,[27],9.48 µM
same,GI50,[28],1.75 µM
same,TGI,[28],6.56 µM
same,GI50,[29],2.43 µM
same,TGI,[29],11.1 µM
same,GI50,[30],5.49 µM
same,TGI,[30],> 63.6 µM
same,GI50,[31],3.97 µM
same,TGI,[31],> 100 µM
same,GI50,[32],2.35 µM
same,TGI,[32],10.9 µM
same,GI50,[33],4.72 µM
same,TGI,[33],38.1 µM
same,GI50,[34],6.08 µM
same,TGI,[34],> 100 µM
same,GI50,[35],1.73 µM
same,TGI,[35],7.22 µM
same,GI50,[36],2.61 µM
same,TGI,[36],8.99 µM
same,GI50,[37],3.39 µM
same,TGI,[37],> 27.9 µM
same,GI50,[38],3.32 µM
same,TGI,[38],39 µM
same,GI50,[39],4.13 µM
same,TGI,[39],38.8 µM
same,GI50,[40],2.29 µM
same,TGI,[40],5.98 µM
same,GI50,[41],5.89 µM
same,TGI,[41],> 100 µM
same,GI50,[42],5.11 µM
same,TGI,[42],> 82.4 µM
same,GI50,[43],2.13 µM
same,TGI,[43],> 26 µM
same,GI50,[44],4.08 µM
same,TGI,[44],> 100 µM
same,GI50,[45],4.42 µM
same,TGI,[45],> 100 µM
same,GI50,[46],2.03 µM
same,TGI,[46],7.62 µM
same,GI50,[47],3.74 µM
same,TGI,[47],> 64.3 µM
same,GI50,[48],2.73 µM
same,TGI,[48],> 100 µM
same,GI50,[56],3.87 µM
same,TGI,[56],> 100 µM
same,GI50,[49],7.1 µM
same,TGI,[49],> 100 µM
same,GI50,[57],4.23 µM
same,TGI,[57],> 100 µM
same,GI50,[50],3.56 µM
same,TGI,[50],13.6 µM
same,GI50,[51],3.02 µM
same,TGI,[51],39.4 µM
same,GI50,[58],2.92 µM
same,TGI,[58],> 100 µM
same,GI50,[52],2.67 µM
same,TGI,[52],15.7 µM
same,GI50,[53],0.316 µM
same,TGI,[53],1.42 µM
same,GI50,[54],2.87 µM
same,TGI,[54],> 100 µM
same,GI50,[55],4.74 µM
same,TGI,[55],> 100 µM
